Assay results published in article PMC6753678, “Fueling Open Innovation for Malaria Transmission-Blocking Drugs: Hundreds of Molecules Targeting Early Parasite Mosquito Stages” (Frontiers in Microbiology, 2019).
Where two headings read alike, the source gives them in different places.

What was measured:
[1] = system: P. falciparum late stage (stages IV-V) gametocytes; parameters: method as in Almela et al 2016; details: TCAMS screen comparison; ref Almela et al 2016; read-out: Pf GCT ATP IC50; cited from earlier work
HepG2 cells [2] = details: cited from earlier work
[3] = system: P. falciparum late stage (stages IV-V) gametocytes; test: P. falciparum late stage gametocyte ATP depletion assay (Pf GC-ATP); details: 1: YES; 0: NO
[4] = system: P. falciparum female gametocytes; parameters: method as in Miguel-Blanco et al 2017; details: TCAMS screen comparison; ref Miguel-Blanco et al 2017; read-out: Pf FGAA IC50; cited from earlier work
[5] = system: P. falciparum female gametocytes; test: P. falciparum female gametogenesis assay (Pf FGAA); details: 1: YES; 0: NO
HepG2 cells [6] = test: HepG2 cytotoxicity assay; details: HepG2 cytotoxicity unified across the three screens
Outline: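 Cells are plated at 2,500 per well on compound-treated plates in MEM containing 10% fetal bovine serum and 1% NEAA, then incubated 48 h at 37°C.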

[7] = value reported with the Pf FGAA screen, ref Miguel-Blanco et al 2017
[8] = value reported with the Pf GCT ATP screen, ref Almela et al 2016

Structure (SMILES) | IC50 [1] | HepG2 cytoxicity (HepG2 cells [2]; [7]) | HepG2 cytoxicity (HepG2 cells [2]; [8]) | Is compound selective in assay? Pf GC-ATP active? [3] | IC50 [4] | Is compound selective in assay? Pf FGAA active? [5] | Unified cytotox (HepG2 cells [6])
CN1CCN(CCCNCc2cccc(Nc3nccc(Nc4ccc(Oc5ccccc5)cc4)n3)c2)CC1 [TCMDC-138616] | 320 nM | 4.68 µM | 5.17 µM | 1 (1: YES) | 980 nM | 0 (0: NO) | 4.92 µM
COc1cc2nc(N3CCC(CNC(=O)c4ccc(-c5ccc(-c6noc(C)n6)cc5)cc4)CC3)nc(N)c2cc1OC [TCMDC-138754] | 110 nM | 4.90 µM | 4.33 µM | 1 (1: YES) | 1050 nM | 0 (0: NO) | 4.61 µM
COc1cc2nc(N3CCC(CNCc4ccc(-c5ccc(C(F)(F)F)cc5)cc4)CC3)nc(N)c2cc1OC [TCMDC-138757] | 17.7 nM | 1.43 µM | <1.56 µM | 1 (1: YES) | 100 nM | 1 (1: YES) | 1.43 µM
COc1c(C2CCN(CCN3CCC(CNC(=O)c4ccc(-c5ccc(C#N)cc5)cc4)CC3)CC2)ccc2c1CCCC2 [TCMDC-138859] | 1170 nM | 3.43 µM | 3.3 µM | 0 (0: NO) | 1460 nM | 0 (0: NO) | 3.36 µM
Cl.Clc1ccc(OCCC2CCN(CCCCCCCN3CCC(CCOc4ccc(Cl)c(Cl)c4)CC3)CC2)cc1Cl [TCMDC-138967] | 470 nM | 1.64 µM | 2.6 µM | 0 (0: NO) | 520 nM | 0 (0: NO) | 2.12 µM
C=C[C@H]1CN(CCCCCCC)CC[C@H]1CCNc1ccnc2ccc(OC)cc12 [TCMDC-139204] | 1080 nM | 2.24 µM | 3.4 µM | 0 (0: NO) | 1800 nM | 0 (0: NO) | 2.82 µM
COc1ccc(CNC(=O)c2cnc3c(O)cccc3c2Nc2cccc(NC(=O)c3ccc(Cl)c(Cl)c3)c2)cc1.O=C(O)C(F)(F)F [TCMDC-139607] | 680 nM | – | <1.56 µM | 0 (0: NO) | 1600 nM | 0 (0: NO) | 1.56 µM
CC(Cc1ccc(CNC(=O)c2ccc(CC(C)NCCc3cccc(Cl)c3)cc2)cc1)NCCc1cccc(Cl)c1 (stereo not drawn) [TCMDC-139659] | 570 nM | 2.26 µM | 3.15 µM | 0 (0: NO) | 860 nM | 0 (0: NO) | 2.71 µM
CC(=O)N(Cc1ccc(CC(C)NCCc2cccc(Cl)c2)cc1)Cc1ccc(CC(C)NCCc2cccc(Cl)c2)cc1 (stereo not drawn) [TCMDC-139678] | 1400 nM | 2.85 µM | 2.3 µM | 0 (0: NO) | 810 nM | 0 (0: NO) | 2.58 µM
c1cc(Nc2nc(-c3ccc(-c4csc(Nc5ccncc5)n4)cc3)cs2)ccn1 [TCMDC-139725] | 260 nM | 2.26 µM | 17.3 µM | 1 (1: YES) | 30 nM | 1 (1: YES) | 9.78 µM
CC(Cc1ccc(C(=O)Nc2ccc(CC(C)NCCc3cccc(Cl)c3)cc2)cc1)NCCc1ccc(C(F)(F)F)cc1 (stereo not drawn) [TCMDC-139790] | 310 nM | 4.13 µM | 3.3 µM | 1 (1: YES) | 1010 nM | 0 (0: NO) | 3.71 µM
CC(CCCCCC(=O)Nc1ccc(CC(C)NCCc2cccc(Cl)c2)cc1)NCCc1cccc(Cl)c1 (stereo not drawn) [TCMDC-139800] | 430 nM | 2.55 µM | 3.2 µM | 0 (0: NO) | 1390 nM | 0 (0: NO) | 2.87 µM
CCOc1ccccc1CCNC(C)Cc1ccc(C(=O)Nc2ccc(CC(C)NCCc3cccc(Cl)c3)cc2)cc1 (stereo not drawn) [TCMDC-139805] | 610 nM | 3.24 µM | 3.5 µM | 0 (0: NO) | 1390 nM | 0 (0: NO) | 3.37 µM
CCCCCCCN1CC[C@@H](CCCc2ccnc3ccc(OCCN4CCNCC4)cc23)[C@@H](CC)C1.Cl [TCMDC-139817] | 570 nM | 4.90 µM | 6.75 µM | 1 (1: YES) | 1860 nM | 0 (0: NO) | 5.82 µM
Cc1oc(-c2ccc(Cl)cc2)cc1C(=O)NCCC1CCN(CCCCCNC(=O)/C=C/c2ccc(Cl)c(Cl)c2)CC1 [TCMDC-140009] | 5430 nM | 3.31 µM | 4.1 µM | 0 (0: NO) | 1830 nM | 0 (0: NO) | 3.71 µM
CC(Cc1ccc(OCCCCOc2ccccc2)cc1)NCCC1CCCN1C (stereo not drawn) [TCMDC-140017] | 95 nM | 1.12 µM | <1.56 µM | 1 (1: YES) | 200 nM | 0 (0: NO) | 1.12 µM
CN(CCCCN)Cc1ccc(-c2ccc(Cl)cc2)cc1 [TCMDC-140123] | 410 nM | 3.55 µM | 3.99 µM | 0 (0: NO) | 1580 nM | 0 (0: NO) | 3.77 µM
CN1CCN(CCCN(Cc2cccc(-c3ccc(CNC4CCCC4)cc3)c2)C(=O)/C=C/c2ccccc2)CC1.O=C(O)C(F)(F)F [TCMDC-140544] | 740 nM | 7.70 µM | 6.39 µM | 0 (0: NO) | 1360 nM | 0 (0: NO) | 7.04 µM
CN1CCN(CCCN(Cc2cccc(-c3ccc(CNCCc4ccccc4)cc3)c2)C(=O)c2cccs2)CC1.O=C(O)C(F)(F)F [TCMDC-140568] | 890 nM | 5.98 µM | 5.6 µM | 0 (0: NO) | 1710 nM | 0 (0: NO) | 5.79 µM
CN1CCN(CCCNCc2cccc(-c3ccc(CNCCc4ccccc4)cc3)c2)CC1 [TCMDC-140643] | 410 nM | 7.92 µM | 18.24 µM | 1 (1: YES) | 1910 nM | 0 (0: NO) | 13.08 µM
COc1cc(NCCCNCc2cn(Cc3cc(Br)cc(Br)c3)c3ccccc23)nc2ccccc12 [TCMDC-140677] | 590 nM | 3.94 µM | 6.13 µM | 0 (0: NO) | 860 nM | 0 (0: NO) | 5.03 µM
CN(C)CCCOc1ccc(CN2CCC(c3c[nH]c4ccc(NCC5CCCCC5)cc34)CC2)cc1.O=C(O)C(F)(F)F [TCMDC-140737] | 500 nM | 5.48 µM | 6.8 µM | 1 (1: YES) | 560 nM | 1 (1: YES) | 6.14 µM
CCN(CC)CCN(Cc1ccc(-c2ccc(C(F)(F)F)cc2)cc1)C(=O)Cn1cc(Cc2cnn(C)c2)c(=O)nc1/C=C/c1cccc(F)c1F [TCMDC-140964] | 170 nM | 9.69 µM | 14.4 µM | 1 (1: YES) | 870 nM | 1 (1: YES) | 12.05 µM
Cc1c(Cn2ncc(N3CCC(N)CC3)c(Cl)c2=O)cccc1NC(=O)Nc1ccc(-c2ccccc2)cc1.O=C(O)C(F)(F)F [TCMDC-141931] | 1180 nM | 22.90 µM | 14.5 µM | 1 (1: YES) | 1090 nM | 1 (1: YES) | 18.70 µM
Cl.Nc1c(I)cc(C(=O)Nc2ccc3nc4c(c(N)c3c2)CCCC4)cc1I [TCMDC-142289] | 410 nM | 4.52 µM | 8.03 µM | 1 (1: YES) | 780 nM | 0 (0: NO) | 6.27 µM
